The values that follow come from US20230192700A1, “PYRAZOLOPYRAZINES ACTING ON CANCERS VIA INHIBITION OF CDK12” (Bayer Aktiengesellschaft, priority 2020, published 2023).

Assay [1] has as its system MDA-MB-231 human breast cancer cells. As to the kind of experiment: Proliferation assay MDA-MB-231 (crystal violet). The class given is cell-based. Particulars: MDA-MB-231 cells, 4 days, median, read-out: Prolif-MDA MB231 IC50 - [mol/l] (median). How it is done: 4. Proliferation assay: MDA-MB-231, CAL-120
Human tumour cells were originally obtained from the American Type Culture Collection (ATCC), or from the Deutsche Sammlung von Mikroorganismen and Zellkulturen (DSMZ, German Collection of Microorganisms and Cell Cultures). Cultivated tumour cells (CAL-120, human breast adenocarcinoma cells, DSMZ ACC-459; MDA-M B-231, human breast cancer cells, ATCC HTB-26) were plated at a density of 4,000 cells/well in a 96-well multititer plate in 200 microL of their respective growth medium supplemented 10% fetal calf serum. After 24 hours, the cells of one plate (zero-point plate) were stained with crystal violet (see below), while the medium of the other plates was supplemented with the test substances in various concentrations (0 micromol/L, as well as in the range of 0.01-10 micromol/L; the final concentration of the solvent dimethyl sulfoxide was adjusted to 0.1%) using a Tecan HP D300 Digital Dispenser. The cells were incubated for 4 days in the presence of test substances. Cell proliferation was determined by staining the cells with crystal violet: the cells were fixed by adding 20 microL/measuring point of an 11% glutaric aldehyde solution for 15 minutes at room temperature. After three washing cycles of the fixed cells with water, the plates were dried at room temperature. The cells were stained by adding 100 microL/measuring point of a 0.1% crystal violet solution (pH 3.0). After three washing cycles of the stained cells with water, the plates were dried at room temperature. The dye was dissolved by adding 100 microL/measuring point of a 10% acetic acid solution. The extinction was determined by photometry at a wavelength of 595 nm. The change of cell number, in percent, was calculated by normalization of the measured values to the extinction values of the zero-point plate(=0%) and the extinction of the untreated (0 μM) cells(=100%). The IC50 values (inhibitory concentration at 50% of maximal effect) were determined by means of a 4 parameter fit.

Assay [2] deals with T1, CDK9/CyclinT1 (Homo sapiens, UniProt P50750).
T1 construct: Recombinant full-length His-tagged human CDK9 and CycT1; His-tag; purchased Life Technologies PV4131; host or cells: insect cells
T1 sequence (P50750 whole entry): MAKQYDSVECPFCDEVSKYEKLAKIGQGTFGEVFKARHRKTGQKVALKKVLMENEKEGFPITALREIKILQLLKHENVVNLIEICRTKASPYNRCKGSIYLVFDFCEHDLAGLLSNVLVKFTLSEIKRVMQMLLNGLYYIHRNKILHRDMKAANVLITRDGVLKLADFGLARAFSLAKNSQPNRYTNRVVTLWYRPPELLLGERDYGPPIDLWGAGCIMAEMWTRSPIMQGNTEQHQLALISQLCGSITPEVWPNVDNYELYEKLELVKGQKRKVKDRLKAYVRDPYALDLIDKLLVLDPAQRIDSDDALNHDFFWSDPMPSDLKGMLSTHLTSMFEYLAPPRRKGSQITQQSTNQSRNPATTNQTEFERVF
T1 sequence (O60563 whole entry partner): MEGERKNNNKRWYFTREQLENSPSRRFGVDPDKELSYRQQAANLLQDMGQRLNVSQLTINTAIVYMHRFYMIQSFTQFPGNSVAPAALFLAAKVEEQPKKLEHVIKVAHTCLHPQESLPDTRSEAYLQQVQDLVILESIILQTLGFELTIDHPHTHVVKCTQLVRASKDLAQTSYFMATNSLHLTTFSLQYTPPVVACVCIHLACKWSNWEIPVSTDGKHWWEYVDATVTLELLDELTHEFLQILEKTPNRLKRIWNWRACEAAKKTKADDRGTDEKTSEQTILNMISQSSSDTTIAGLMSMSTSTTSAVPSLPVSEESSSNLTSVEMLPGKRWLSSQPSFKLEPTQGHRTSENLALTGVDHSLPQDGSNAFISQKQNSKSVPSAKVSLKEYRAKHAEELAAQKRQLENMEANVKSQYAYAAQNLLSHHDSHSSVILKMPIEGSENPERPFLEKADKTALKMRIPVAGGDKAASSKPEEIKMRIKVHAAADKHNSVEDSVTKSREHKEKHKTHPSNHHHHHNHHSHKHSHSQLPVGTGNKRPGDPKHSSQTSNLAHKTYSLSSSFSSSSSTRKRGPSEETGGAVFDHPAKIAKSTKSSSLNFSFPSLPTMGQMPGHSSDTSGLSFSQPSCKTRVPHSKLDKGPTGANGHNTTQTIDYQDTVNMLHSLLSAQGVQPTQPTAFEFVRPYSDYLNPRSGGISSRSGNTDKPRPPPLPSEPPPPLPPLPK
Nature of the assay: CDK9/CycT1 high ATP kinase assay (TR-FRET). The class given is biochemical. Particulars: 2 mM ATP (high ATP); median; read-out: CDK9/CyclinT1, 2 mM ATP (high ATP) IC50 - [mol/l] (median). As for the experimental part:
2.5 CDK9/CycT1 High ATP Kinase Assay
CDK9/CycT1 -inhibitory activity of compounds of the present invention at a high ATP concentration after preincubation of enzyme and test compounds was quantified employing the CDK9/CycT1 TR-FRET assay as described in the following paragraphs.
Recombinant full-length His-tagged human CDK9 and CycT1, expressed in insect cells and purified by Ni-NTA affinity chromatography, were purchased from Life Technologies (Cat. No PV4131). As substrate for the kinase reaction biotinylated peptide biotin-Ttds-YISPLKSPYKISEG (C-terminus in amide form) was used which can be purchased e.g. form the company JERINI peptide technologies (Berlin, Germany).
For the assay 50 nanoL of a 100 fold concentrated solution of the test compound in DMSO was pipetted into either a black low volume 384 well microtiter plate or a black 1536 well microtiter plate (both Greiner Bio-One, Frickenhausen, Germany), 2 microL of a solution of CDK9/CycT1 in aqueous assay buffer [50 millimol/L Tris/HCl pH 8.0, 10 millimol/L MgCl2, 1.0 millimol/L dithiothreitol, 0.1 millimol/L sodium ortho-vanadate, 0.01% (v/v) Nonidet-P40 (Sigma)] were added and the mixture was incubated for 15 min at 22° C. to allow pre-binding of the test compounds to the enzyme before the start of the kinase reaction. Then the kinase reaction was started by the addition of 3 microL of a solution of adenosine-tri-phosphate (ATP, 3.3 millimol/L=>final conc. in the 5 microL assay volume is 2 millimol/L) and substrate (1.25 micromol/L =>final conc. in the 5 microL assay volume is 0.75 micromol/L) in assay buffer and the resulting mixture was incubated for a reaction time of 25 min at 22° C. The concentration of CDK9/CycT1 was adjusted depending of the activity of the enzyme lot and was chosen appropriate to have the assay in the linear range, typical concentrations were in the range of 0.5 microg/mL. The reaction was stopped by the addition of 3 microL of a solution of TR-FRET detection reagents (0.33 micromol/L streptavidine-XL665 [Cisbio Bioassays, Codolet, France] and 1.67 nanomol/L anti-RB(pSer807/pSer811)-antibody from BD Pharmingen [#558389] and 2 nanomol/L LANCE EU-W1024 labeled anti-mouse IgG antibody [Perkin-Elmer, product no. AD0077]) in an aqueous EDTA-solution (167 millimol/L EDTA, 0.2% (w/v) bovine serum albumin in 100 millimol/L HEPES pH 7.5).
The resulting mixture was incubated 1 h at 22° C. to allow the formation of complex between the phosphorylated biotinylated peptide and the detection reagents. Subsequently the amount of phosphorylated substrate was evaluated by measurement of the resonance energy transfer from the Eu-chelate to the streptavidine-XL. Therefore, the fluorescence emissions at 620 nm and 665 nm after excitation at 350 nm was measured in a TR-FRET reader, e.g. a Pherastar (BMG Labtechnologies, Offenburg, Germany) or a Viewlux (Perkin-Elmer). The ratio of the emissions at 665 nm and at […] was taken as the measure for the amount of phosphorylated substrate. The data were normalised (enzyme reaction without inhibitor=0% inhibition, all other assay components but no enzyme=100% inhibition).

SMILES strings stand for the structures. pIC50: −log10 of the molar value. Where two headings read alike, the source gives them in different places.

In the case of `CC(C)(O)C1CC(n2nc(NCc3nc4ccccc4[nH]3)c3ncc(C4CC4)nc32)C1` (mixture of isomers) [Example 48, 2-[cis/trans-3-(3-{[(1H-benzimidazol-2-yl)methyl]amino}-6-cyclopropyl-1H-pyrazolo[3,4-b]pyrazin-1-yl)cyclobutyl]propan-2-ol], the pIC50 in assay [1] (Homo sapiens, MDA-MB-231, 96 h) was 7.18; in assay [2], under 4.70.
For `c1ccc2[nH]c(CNc3nn(C4CCOC4)c4nc(C5CC5)cnc34)nc2c1` (racemic) [Example 10, (±)-N-[(1H-benzimidazol-2-yl)methyl]-6-cyclopropyl-1-[oxolan-3-yl]-1H-pyrazolo[3,4-b]pyrazin-3-amine] the same measures were 6.82 and under 4.70.
For `CN1CCCC(n2nc(NCc3nc4ccccc4[nH]3)c3ncc(C4CC4)nc32)CC1` (racemic) [Example 34, (±)-N-[(1H-benzimidazol-2-yl)methyl]-6-cyclopropyl-1-(1-methylazepan-4-yl)-1H-pyrazolo[3,4-b]pyrazin-3-amine] the same measures were 7.41 and under 4.70.
For `CN1CCC(n2nc(NCc3nc4ccccc4[nH]3)c3ncc(C4CC4)nc32)C1` (racemic) [Example 35, (±)-N-[(1H-benzimidazol-2-yl)methyl]-6-cyclopropyl-1-(1-methylpyrrolidin-3-yl)-1H-pyrazolo[3,4-b]pyrazin-3-amine] the same measures were 7.23 and under 4.70.
For `CC1CC(n2nc(NCc3nc4ccccc4[nH]3)c3ncc(C4CC4)nc32)CCN1C` (racemic) [Example 41, (±)-cis/trans-N-[(1H-benzimidazol-2-yl)methyl]-6-cyclopropyl-1-(1,2-dimethylpiperidin-4-yl)-1H-pyrazolo[3,4-b]pyrazin-3-amine], the pIC50 was 7.17 in assay [1] (Homo sapiens, MDA-MB-231, 96 h) and under 4.70 in assay [2].
For the molecule `CC1COCCC1n1nc(NCc2nc3ccccc3[nH]2)c2ncc(C3CC3)nc21` (racemic) [Example 42, (±)-cis/trans-N-[(1H-benzimidazol-2-yl)methyl]-6-cyclopropyl-1-(3-methyloxan-4-yl)-1H-pyrazolo[3,4-b]pyrazin-3-amine], the pIC50 in assay [1] (Homo sapiens, MDA-MB-231, 96 h) was 6.83; in assay [2], under 4.70.
Take `CC1CC(n2nc(NCc3nc4ccccc4[nH]3)c3ncc(C4CC4)nc32)CCO1` (racemic) [Example 44, (±)-cis/trans-N-[(1H-benzimidazol-2-yl)methyl]-6-cyclopropyl-1-(2-methyloxan-4-yl)-1H-pyrazolo[3,4-b]pyrazin-3-amine]: the pIC50 in assay [1] (Homo sapiens, MDA-MB-231, 96 h) was 7.42; in assay [2] it was under 4.70.
With `COCCC(C)n1nc(NCc2nc3ccccc3[nH]2)c2ncc(C3CC3)nc21` (racemic) [Example 57, (±)-N-[(1H-benzimidazol-2-yl)methyl]-6-cyclopropyl-1-(4-methoxybutan-2-yl)-1H-pyrazolo[3,4-b]pyrazin-3-amine], the pIC50 is 6.62 in assay [1] (Homo sapiens, MDA-MB-231, 96 h) and under 4.70 in assay [2].
Take `CC(CCN(C)C)n1nc(NCc2nc3ccccc3[nH]2)c2ncc(C3CC3)nc21` (racemic) [Example 62, (±)-N-[(1H-benzimidazol-2-yl)methyl]-6-cyclopropyl-1-[4-(dimethylamino)butan-2-yl]-1H-pyrazolo[3,4-b]pyrazin-3-amine]: the pIC50 was 6.06 in assay [1] (Homo sapiens, MDA-MB-231, 96 h) and under 4.70 in assay [2].
In the case of `c1ccc2[nH]c(CNc3nn(C4CCOC4)c4nc(C5CC5)cnc34)nc2c1` (single isomer, unassigned) [Example 17, (+) or (−)-N-[(1H-benzimidazol-2-yl)methyl]-6-cyclopropyl-1-(oxolan-3-yl)-1H-pyrazolo[3,4-b]pyrazin-3-amine], the pIC50 in assay [1] (Homo sapiens, MDA-MB-231, 96 h) is 6.86; in assay [2], under 4.70.
Turning to `c1ccc2[nH]c(CNc3nn(C4CCOC4)c4nc(C5CC5)cnc34)nc2c1` (single isomer, unassigned) [Example 18, (-) or (+) -N-[(1H-benzimidazol-2-yl)methyl]-6-cyclopropyl-1-[oxolan-3-yl]-1H-pyrazolo[3,4-b]pyrazin-3-amine], the pIC50 in assay [1] was 6.82; in assay [2] it was under 4.70.
For `CN1CCCC(n2nc(NCc3nc4ccccc4[nH]3)c3ncc(C4CC4)nc32)CC1` (single isomer, unassigned) [Example 37, (+) or (−)-N-[(1H-benzimidazol-2-yl)methyl]-6-cyclopropyl-1-[(4R*)-1-methylazepan-4-yl]-1H-pyrazolo[3,4-b]pyrazin-3-amine], the pIC50 in assay [1] was 7.82; in assay [2], under 4.70.
For the molecule `CN1CCCC(n2nc(NCc3nc4ccccc4[nH]3)c3ncc(C4CC4)nc32)CC1` (single isomer, unassigned) [Example 38, (−) or (+)-N-[(1H-benzimidazol-2-yl)methyl]-6-cyclopropyl-1-[(4R*)-1-methylazepan-4-yl]-1H-pyrazolo[3,4-b]pyrazin-3-amine], the pIC50 in assay [1] was 7.33; in assay [2], under 4.70.
For `CC(CCN(C)C)n1nc(NCc2nc3ccccc3[nH]2)c2ncc(C3CC3)nc21` (single isomer, unassigned) [Example 63, (+) or (−)-N-[(1H-benzimidazol-2-yl)methyl]-6-cyclopropyl-1-[4-(dimethylamino)butan-2-yl]-1H-pyrazolo[3,4-b]pyrazin-3-amine], the pIC50 is 5.75 in assay [1] and under 4.70 in assay [2].
In the case of `CC(CCN(C)C)n1nc(NCc2nc3ccccc3[nH]2)c2ncc(C3CC3)nc21` (single isomer, unassigned) [Example 64, (−) or(+)-N-[(1H-benzimidazol-2-yl)methyl]-6-cyclopropyl-1-[4-(dimethylamino)butan-2-yl]-1H-pyrazolo[3,4-b]pyrazin-3-amine], the pIC50 in assay [1] was 6.27; in assay [2] it was under 4.70.
For `CN1CCC(n2nc(NCc3nc4ccccc4[nH]3)c3ncc(C4CC4)nc32)C1` (single isomer, unassigned) [Example 78, (+) or (−)-N-[(1H-benzimidazol-2-yl)methyl]-6-cyclopropyl-1-(1-methylpyrrolidin-3-yl)-1H-pyrazolo[3,4-b]pyrazin-3-amine] the same measures were 7.46 and under 4.70.
